Data from US6964975B2, “Isoxazole and thiazole compounds and use thereof as medicine” (Kirin Beer Kabushiki Kaisha, priority 2000, dated 2005).

Molecular target: T1, human EDG-2 (Homo sapiens, UniProt Q92633)
T1 construct: cDNA of the cloned human EDG-2 was introduced into pEFneo, which is an animal expression vector; expressed in transfected cells; host or cells: HepG2
Assay: Inhibitory activity on LPA-induced elevation of intracellular Ca2+ level
Type: cell-based
Settings: 50% inhibition of elevation of intracellular Ca2+ level by LPA, human EDG-2/HepG2 cells, fura-2
Text: The human EDG-2 expression plasmid was introduced into HepG2 cells by electroporation. After the introduction, culturing was continued while exchanging selective media every 3 to 4 days, thereby obtaining an expressed colony. Regarding these cells, Ca-influx and cell-proliferation by LPA, level of [^3H] LPA binding and the like were inspected to select a cell line which highly expresses human EDG-2 (human EDG-2/HepG2).
Human EDG-2/HepG2 cells were washed and then suspended in 0.1% BSA (bovine serum albumin)-containing HEPES buffer. A fluorescent indicator, fura-2/AM (Wako Pure Chemical Industries, Ltd.), was added, and the mixture was shaken at room temperature for 45 minutes so that the indicator is included in the cell. Cells were washed again and then suspended in 0.1% BSA-containing HEPES buffer, and intracellular Ca^2+ level was assayed using FDSS2000 (Hamamatsu Photonics). […] Each test compound was added to the cell suspension followed by the addition of LPA, thereby examining the inhibitory activity of the test compound on the function of LPA for elevating the intracellular Ca level. […] The lower the IC50 value, the higher the antagonistic activity on the LPA receptor.

T1 sequence (Q92633 whole entry): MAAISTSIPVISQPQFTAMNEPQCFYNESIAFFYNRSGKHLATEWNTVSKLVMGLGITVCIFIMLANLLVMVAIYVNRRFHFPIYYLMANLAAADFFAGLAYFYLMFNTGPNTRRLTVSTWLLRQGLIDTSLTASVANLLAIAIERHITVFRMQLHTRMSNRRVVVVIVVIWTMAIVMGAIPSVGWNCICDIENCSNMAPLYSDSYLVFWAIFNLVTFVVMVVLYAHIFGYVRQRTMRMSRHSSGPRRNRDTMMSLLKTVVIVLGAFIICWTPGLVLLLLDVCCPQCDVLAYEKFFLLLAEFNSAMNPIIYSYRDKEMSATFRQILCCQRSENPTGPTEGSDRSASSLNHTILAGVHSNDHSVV

IC50 [µM] | SMILES
30 to 100 | Cc1onc(-c2ccccc2)c1NC(=O)OCCc1ccccc1 [Compound 96, Phenethyl N-(5-methyl-3-phenyl-4-isoxazolyl)carbamate]
3 | Cc1noc(-c2ccc(COc3ccccc3)cc2)c1NC(=O)OC(C)c1ccccc1Cl (stereo not shown) [Compound 79, 1-(2-Chlorophenyl)ethyl N-[3-methyl-5-[4-(phenoxymethyl)phenyl]-4-isoxazolyl]carbamate]
3 | Cc1noc(-c2cccc(CSCCO)c2)c1NC(=O)OC(C)c1ccccc1Cl (stereo not shown) [Compound 131, 1-(2-Chlorophenyl)ethyl N-[5-(3-{[(2-hydroxyethyl)sulfanyl]methyl}phenyl)-3-methyl-4-isoxazolyl]carbamate]
10 to 30 | Cc1noc(-c2ccc(COCc3ccc(F)cc3)cc2)c1NC(=O)OC(C)c1ccccc1Cl (stereo not shown) [Compound 82, 1-(2-Chlorophenyl)ethyl N-[5-(4-[[(4-fluorobenzyl)oxy]methyl]phenyl)-3-methyl-4-isoxazolyl]carbamate]
1 to 3 | Cc1noc(-c2ccc(CCl)cc2)c1NC(=O)OC(C)c1ccccc1Cl (stereo not shown) [Compound 74, 1-(2-Chlorophenyl)ethyl N-[5-[4-(chloromethyl)phenyl]-3-methyl-4-isoxazolyl]carbamate]
3 to 10 | Cc1noc(-c2ccc(COCc3ccoc3)cc2)c1NC(=O)OC(C)c1ccccc1Cl (stereo not shown) [Compound 85, 1-(2-Chlorophenyl)ethyl N-(5-[4-[(3-furylmethoxy)methyl]phenyl]-3-methyl-4-isoxazolyl)carbamate]
3 to 10 | Cc1noc(-c2ccc(CNCc3ccco3)cc2)c1NC(=O)OC(C)c1ccccc1Cl (stereo not shown) [Compound 93, 1-(2-Chlorophenyl)ethyl N-[5-(4-[[(2-furylmethyl)amino]methyl]phenyl)-3-methyl-4-isoxazolyl]carbamate]
10 | Cc1noc(-c2ccc(CNCCc3ccccn3)cc2)c1NC(=O)OC(C)c1ccccc1Cl (stereo not shown) [Compound 90, 1-(2-Chlorophenyl)ethyl N-(3-methyl-5-[4-[([2-(2-pyridyl)ethyl]amino)methyl]phenyl]-4-isoxazolyl)carbamate]
30 to 100 | Cc1onc(-c2ccccc2)c1NC(=O)OCCC(C)C [Compound 100, Isopentyl N-(5-methyl-3-phenyl-4-isoxazolyl)carbamate]
10 to 30 | Cc1noc(-c2ccc(CN3CC(C)OC(C)C3)cc2)c1NC(=O)OC(C)c1ccccc1Cl (stereo not shown) [Compound 89, 1-(2-Chlorophenyl)ethyl N-(5-[4-[(2,6-dimethylmorpholino)methyl]phenyl]-3-methyl-4-isoxazolyl)carbamate]
10 | Cc1noc(-c2ccc(COCc3c(F)cccc3F)cc2)c1NC(=O)OC(C)c1ccccc1Cl (stereo not shown) [Compound 83, 1-(2-Chlorophenyl)ethyl N-[5-(4-[[(2,6-difluorobenzyl)oxy]methyl]phenyl)-3-methyl-4-isoxazolyl]carbamate]
30 to 100 | C=CCCCOC(=O)Nc1c(-c2ccccc2)noc1C [Compound 102, 4-Pentenyl N-(5-methyl-3-phenyl-4-isoxazolyl)carbamate]
3 to 10 | Cc1ccc(-c2onc(C)c2NC(=O)OC(C)c2ccccc2Cl)s1 (stereo not shown) [Compound 69, 1-(2-Chlorophenyl)ethyl N-[3-methyl-5-(5-methyl-2-thienyl)-4-isoxazolyl]carbamate]
10 to 30 | CCCCc1ccc(-c2onc(C)c2NC(=O)OC(C)c2ccccc2)cc1 (stereo not shown) [Compound 64, 1-Phenylethyl N-[5-(4-butylphenyl)-3-methyl-4-isoxazolyl]carbamate]
1 to 3 | Cc1noc(-c2ccc(Br)o2)c1NC(=O)OC(C)c1ccccc1Cl (stereo not shown) [Compound 73, 1-(2-Chlorophenyl)ethyl N-[5-(5-bromo-2-furyl)-3-methyl-4-isoxazolyl]carbamate]
1 to 3 | CCc1noc(-c2ccc(C#N)cc2)c1NC(=O)OC(C)c1ccccc1Cl (stereo not shown) [Compound 77, 1-(2-Chlorophenyl)ethyl N-[5-(4-cyanophenyl)-3-ethyl-4-isoxazolyl]carbamate]
1 to 3 | CCc1noc(-c2ccccc2)c1NC(=O)OC(C)c1ccccc1Cl (stereo not shown) [Compound 76, 1-(2-Chlorophenyl)ethyl N-(3-ethyl-5-phenyl-4-isoxazolyl)carbamate]
30 to 100 | Cc1ccccc1CCOC(=O)Nc1c(-c2ccccc2)noc1C [Compound 95, 2-Methylphenethyl N-(5-methyl-3-phenyl-4-isoxazolyl)carbamate]

The next lines start with the molecule.

SMILES | IC50 [µM]
Cc1noc(-c2ccc(Cl)nc2)c1NC(=O)OC(C)c1ccccc1Cl (stereo not shown) [Compound 63, 1-(2-Chlorophenyl)ethyl N-[5-(6-chloro-3-pyridyl)-3-methyl-4-isoxazolyl]carbamate] | 30
Cc1ccc(-c2onc(C)c2NC(=O)OC(C)c2ccccc2)cc1 (stereo not shown) [Compound 37, 1-Phenylethyl N-[3-methyl-5-(4-methylphenyl)-4-isoxazolyl]carbamate] | 30
Cc1cccc(-c2onc(C)c2NC(=O)OC(C)c2ccccc2Cl)c1 (stereo not shown) [Compound 28, 1-(2-Chlorophenyl)ethyl N-[3-methyl-5-(3-methylphenyl)-4-isoxazolyl]carbamate] | 10 to 30
Cc1noc(-c2cccc([N+](=O)[O-])c2)c1NC(=O)OC(C)c1ccccc1 (stereo not shown) [Compound 58, 1-Phenylethyl N-[3-methyl-5-(3-nitrophenyl)-4-isoxazolyl]carbamate] | 10
Cc1onc(-c2ccc([N+](=O)[O-])cc2)c1NC(=O)OC(C)c1ccccc1Cl (stereo not shown) [Compound 6, 1-(2-Chlorophenyl)ethyl N-[5-methyl-3-(4-nitrophenyl)-4-isoxazolyl]carbamate] | 10
Cc1onc(-c2ccccc2)c1NC(=O)O[C@H](C)c1ccccc1 [Compound 9, (1R)-1-Phenylethyl N-(5-methyl-3-phenyl-4-isoxazolyl)carbamate] | 10 to 30
CC(OC(=O)Nc1c(Cl)nsc1-c1ccccc1Cl)c1ccccc1 (stereo not shown) [Compound 25, 1-Phenylethyl N-[3-chloro-5-(2-chlorophenyl)-4-isothiazolyl]carbamate] | 30 to 100
Cc1noc(-c2ccc(OC(F)(F)F)cc2)c1NC(=O)OC(C)c1ccccc1 (stereo not shown) [Compound 35, 1-Phenylethyl N-[5-[4-(trifluoromethoxy)phenyl]-3-methyl-4-isoxazolyl]carbamate] | 3 to 10
Cc1noc(-c2cccs2)c1NC(=O)OC(C)c1ccccc1 (stereo not shown) [Compound 56, 1-Phenylethyl N-[3-methyl-5-(2-thienyl)-4-isoxazolyl]carbamate] | 3 to 10
Cc1ccc(-c2onc(C)c2NC(=O)O[C@H](C)c2ccccc2Br)cc1 [Compound 48, (1R)-1-(2-Bromophenyl)ethyl N-[3-methyl-5-(4-methylphenyl)-4-isoxazolyl]carbamate] | 3 to 10
Cc1noc(-c2ccc3c(c2)OCO3)c1NC(=O)OC(C)c1ccccc1Cl (stereo not shown) [Compound 52, 1-(2-Chlorophenyl)ethyl N-[5-(1,3-benzodioxol-5-yl)-3-methyl-4-isoxazolyl]carbamate] | 30
Cc1noc(-c2ccccc2Br)c1NC(=O)OC(C)c1ccccc1Cl (stereo not shown) [Compound 51, 1-(2-Chlorophenyl)ethyl N-[5-(2-bromophenyl)-3-methyl-4-isoxazolyl]carbamate] | 10 to 30
Cc1noc(-c2cccc(Cl)c2)c1NC(=O)OC(C)c1ccccc1Cl (stereo not shown) [Compound 39, 1-(2-Chlorophenyl)ethyl N-[5-(3-chlorophenyl)-3-methyl-4-isoxazolyl]carbamate] | 10
Cc1onc(-c2cccc(C(F)(F)F)c2)c1NC(=O)OC(C)c1ccccc1Cl (stereo not shown) [Compound 15, 1-(2-Chlorophenyl)ethyl N-[5-methyl-3-[3-(trifluoromethyl)phenyl]-4-isoxazolyl]carbamate] | 30
Cc1noc(-c2ccccc2)c1NC(=O)O[C@H](C)c1ccccc1Cl [Compound 18, (1R)-1-(2-Chlorophenyl)ethyl N-(3-methyl-5-phenyl-4-isoxazolyl)carbamate] | 3
Cc1ccccc1C(C)OC(=O)Nc1c(-c2ccccc2)noc1C (stereo not shown) [Compound 14, 1-(2-Methylphenyl)ethyl N-(5-methyl-3-phenyl-4-isoxazolyl)carbamate] | 30 to 100
Cc1onc(-c2ccccc2)c1NC(=O)OC(C)c1ccccc1 (stereo not shown) [Compound 12, 1-Phenylethyl N-(5-methyl-3-phenyl-4-isoxazolyl)carbamate] | 30 to 100
Cc1onc(-c2ccc(F)cc2)c1NC(=O)OC(C)c1ccccc1Cl (stereo not shown) [Compound 16, 1-(2-Chlorophenyl)ethyl N-[3-(4-fluorophenyl)-5-methyl-4-isoxazolyl]carbamate] | 3 to 10
Cc1noc(-c2ccc(OC(F)(F)F)cc2)c1NC(=O)OC(C)c1ccccc1Cl (stereo not shown) [Compound 36, 1-(2-Chlorophenyl)ethyl N-[5-[4-(trifluoromethoxy)phenyl]-3-methyl-4-isoxazolyl]carbamate] | 3 to 10
Cc1onc(-c2ccc(OC(F)(F)F)cc2)c1NC(=O)OC(C)c1ccccc1Cl (stereo not shown) [Compound 11, 1-(2-Chlorophenyl)ethyl N-[5-methyl-3-[4-(trifluoromethoxy)phenyl]-4-isoxazolyl]carbamate] | 10 to 30
Cc1noc(-c2cccc(F)c2)c1NC(=O)OC(C)c1ccccc1F (stereo not shown) [Compound 34, 1-(2-Fluorophenyl)ethyl N-[5-(3-fluorophenyl)-3-methyl-4-isoxazolyl]carbamate] | 10
Cc1noc(-c2cccc(OC(F)(F)F)c2)c1NC(=O)OC(C)c1ccccc1Cl (stereo not shown) [Compound 53, 1-(2-Chlorophenyl)ethyl N-[3-methyl-5-[3-(trifluoromethoxy)phenyl]-4-isoxazolyl]carbamate] | 30
